# Several values for one entry are separate records, joined by “and”; a condition that tells them apart may be missing. Identical values can stand only once. Counter-ions that a name gives are not always drawn.
# Legend:
# [1] = cited from earlier work
# [2] = test system: dopamine transporters (DAT); assay: [18F]-FE-PE2I PET displacement: DAT occupancy, displacement half-time and brain entry (modified GRTM); assay type: in vivo, rhesus macaques (Macaca mulatta); conditions: for Brain entry time, Caudate / Brain entry time, Putamen / Brain entry time, Mean: modified GRTM; for Brain entry time, Mean: mean over animals and regions; for Percent maximum displacement (= % DAT occupancy), Caudate\Putamen mean, Mean ± SD: group mean of four animals; for Percent maximum displacement (= % DAT occupancy), Caudate\putamen mean, Mean: mean of two animals
# Procedure: Two male and two female rhesus macaques (Macaca mulatta) housed at the Yale University School of Medicine (New Haven, CT) were used for the [^18F]-FE-PE2I imaging. In all experiments, [^18F]-FE-PE2I was administered as a bolus plus constant infusion (Kbol from 168 to 216 min; total radioactivity = 162 ± 27 MBq) over 4 h to establish steady-state DAT binding. Bolus/infusion delivery parameters (i.e., Kbol) for [^18F]-FE-PE2I for each monkey were determined from baseline [^18F]-FE-PE2I scans that utilized single bolus intravenous injections of the radiotracer (Carson et al. [1993]). Identical procedures were used for list-mode image acquisition with a Siemens Focus 220 PET scanner for all DAT brain studies. The dynamic PET imaging series were reconstructed into 57 frames (6 × 0.5 min, 3 × 1 min, 2 × 2 min, and 46 × 5 min) using filtered back projection with standard corrections for random, scatter, and attenuation provided by the camera manufacturer.
# At 2 h into the [^18F]-FE-PE2I scan, under tracer steady-state conditions, DAS or MPH was administered i.v. either as a 3 min i.v. bolus or as a bolus plus 4-step infusion over 40 min (four 10-min steps). The drug bolus experiments were carried out in all four rhesus macaques, each receiving DAS at 0.2 and 0.1 mg/kg and MPH at 0.5 and 0.1 mg/kg. The drug bolus plus 4-step infusion experiments were conducted in two rhesus macaques, each receiving DAS bolus injection over 30 s followed by a 4-step infusion over 40 min (four 10-min steps, 1.55, 1.45, 1.4, 1.3 mg) and MPH bolus injection over 30 s followed by an infusion over 40 min (four 10-min steps, 1.15, 1, 0.85, 0.75 mg).
# Reconstructed dynamic PET images were transferred and analyzed using the image processing software package PMOD 3.6 (PMOD Technologies, Zurich, Switzerland). The PET images were normalized to an MR rhesus brain template (Rohlfing et al. [2012]) and a region of interest (ROI) atlas including the caudate nucleus, putamen, and cerebellar cortex was applied. Average activity concentration (kBq/cc) within each ROI was determined and time-activity curves (TAC) representing the regional brain activity concentration over time were generated. TACs were additionally expressed in SUV units (g/ml) by normalizing by the weight of the animal and the injected dose.
# Reductions in radiotracer binding following administration of DAS or MPH were used to determine DAT occupancy while reductions in radiotracer binding over time were used to estimate brain entry and binding rates. The displacement half-time is defined as the time it takes from drug administration until 50% of maximal tracer displacement is achieved. Tracer displacement half-times were estimated using average uptake levels from the baseline and displacement experiments and expressing the change in standardized uptake values (SUV) units as a fraction (normalized) of the observed SUV difference at the end of the experiment. Normalized SUV values for caudate and putamen respectively were plotted against time for each dose of DAS and MPH respectively to estimate the drug displacement half-time.
# Brain entry of DAS and MPH was determined by analyzing the [^18F]-FE-PE2I TACs in the putamen and caudate nucleus using a kinetic model using the cerebellar cortex as a reference region. The kinetic model is based on the generalized reference tissue model (GRTM; Votaw et al. [2002]) and a recent report of brain entry and binding rates measurement (Nicolas et al. [2016]). […] The half-life of the brain entry and binding of the drug was estimated as ln(2)/α. The kinetic model employs 5 parameters: R1, BPND, r, α, and k2′ where R1 is the relative tracer influx rate constant and k2′ is the reference tissue tracer efflux rate constant. The maximum occupancy was constrained to the measured displacement, while k2′ and α were constrained to a common value across the putamen and caudate nucleus.
# [3] = 0.1 mg/kg MPH, bolus administration, individual animals A-D
# [4] = 0.5 mg/kg MPH, bolus administration, individual animals A-D
# [5] = 4.3 mg MPH, bolus + 4 step infusion, individual animals A, B
# [6] = MPH 0.1 mg/kg i.v. 3 min bolus, individual animals A-D
# [7] = MPH 0.5 mg/kg i.v. 3 min bolus, individual animals A-D
# [8] = MPH 4.3 mg, bolus plus 4-step infusion over 40 min, individual animals A, B
# [9] = 0.1 mg/kg DAS, bolus administration, individual animals A-D
# [10] = 0.2 mg/kg DAS, bolus administration, individual animals A-D
# [11] = 6 mg DAS, bolus + 4 step infusion, individual animals A, B
# [12] = DAS 0.1 mg/kg i.v. 3 min bolus, individual animals A-D
# [13] = DAS 0.2 mg/kg i.v. 3 min bolus, individual animals A-D
# [14] = DAS 6.0 mg, bolus plus 4-step infusion over 40 min, individual animals A, B
compound,measurement,setting,value
"COC(=O)C(c1ccccc1)C1CCCCN1 (racemic) [MPH, (±)-Methyl α-Phenyl-α-(2-piperidyl)acetate hydrochloride, reference compound]",Time to peak (oral absorption),"[1]; oral, ref Koblan et al. [2016]",2 to 3 h
same,Averaged displacement half-time (between caudate and putamen),[2]; 0.1 mg/kg MPH i.v. bolus,15.5 min
same,"Brain entry time, Caudate",[2]; [3],2.57 min and 3.41 min and 2.60 min and 3.44 min
same,"Brain entry time, Putamen",[2]; [3],2.34 min and 2.59 min and 2.91 min and 4.28 min
same,"Brain entry time, Mean","[2]; 0.1 mg/kg MPH, bolus administration",3 min and 3.02 ± 0.65 min and 3.02 min
same,Averaged displacement half-time (between caudate and putamen),[2]; 0.5 mg/kg MPH i.v. bolus,11.5 min
same,"Brain entry time, Caudate",[2]; [4],2.25 min and 2.19 min and 1.78 min and 2.65 min
same,"Brain entry time, Putamen",[2]; [4],2.07 min and 2.08 min and 2.09 min and 2.00 min
same,"Brain entry time, Mean","[2]; 0.5 mg/kg MPH, bolus administration",2 min and 2.14 ± 0.25 min and 2.14 min
same,"Brain entry time, Caudate",[2]; [5],7.15 min and 6.48 min
same,"Brain entry time, Putamen",[2]; [5],5.77 min and 7.69 min
same,"Brain entry time, Mean","[2]; 4.3 mg MPH, bolus + 4 step infusion",6.77 min
same,"Percent maximum displacement (= % DAT occupancy), Caudate\Putamen mean, Mean ± SD",[2]; MPH 0.1 mg/kg i.v. 3 min bolus,69% and 68.60 ± 5.21%
same,"Percent maximum displacement (= % DAT occupancy), Caudate nucleus",[2]; [6],72.4% and 72.7% and 64.2% and 60.4%
same,"Percent maximum displacement (= % DAT occupancy), Caudate\Putamen mean",[2]; [6],73.1% and 63.6% and 64.6%
same,"Percent maximum displacement (= % DAT occupancy), Putamen",[2]; [6],73.7% and 73.5% and 62.9% and 68.8%
same,"Percent maximum displacement (= % DAT occupancy), Caudate\Putamen mean, Mean ± SD",[2]; MPH 0.5 mg/kg i.v. 3 min bolus,88% and 88.20 ± 2.62%
same,"Percent maximum displacement (= % DAT occupancy), Caudate nucleus",[2]; [7],91.7% and 87.9% and 83.9% and 87.0%
same,"Percent maximum displacement (= % DAT occupancy), Caudate\Putamen mean",[2]; [7],91.3% and 88.5% and 84.9% and 88.1%
same,"Percent maximum displacement (= % DAT occupancy), Putamen",[2]; [7],90.9% and 89.0% and 85.9% and 89.1%
same,"Percent maximum displacement (= % DAT occupancy), Caudate nucleus",[2]; [8],87.9% and 90.2%
same,"Percent maximum displacement (= % DAT occupancy), Caudate\Putamen mean",[2]; [8],88.9% and 89.5%
same,"Percent maximum displacement (= % DAT occupancy), Putamen",[2]; [8],89.9% and 88.9%
same,"Percent maximum displacement (= % DAT occupancy), Caudate\putamen mean, Mean","[2]; MPH 4.3 mg, bolus plus 4-step infusion over 40 min",89.2%
same,Brain entry faster than DAS,"[2]; bolus + 4 step infusion, matched delivery, MPH relative to DAS",~3 fold
same,Displacement of [18F]-FE-PE2I / DAT occupancy faster than DAS (displacement half-times),"[2]; i.v. bolus, MPH relative to DAS",approximately 3 fold
"N[C@@H]1CC[C@@H](c2ccc(Cl)c(Cl)c2)c2ccccc21 [DAS, (1R,4S)-4-(3,4-dichlorophenyl)-1,2,3,4-tetra-hydronaphthalen-1-amine]",t1/2 (elimination),"[1]; human, in vivo, po",47 to 77 h
same,tmax,[1]; oral administration in humans,10 to 12 h
same,Averaged displacement half-time (between caudate and putamen),[2]; 0.1 mg/kg DAS i.v. bolus,40 min
same,"Brain entry time, Caudate",[2]; [9],18.91 min and 27.13 min and 25.06 min and 19.23 min
same,"Brain entry time, Putamen",[2]; [9],15.35 min and 18.83 min and 33.22 min and 19.5 min
same,"Brain entry time, Mean","[2]; 0.1 mg/kg DAS, bolus administration",22 min and 22.15 ± 5.85 min and 22.15 min
same,Averaged displacement half-time (between caudate and putamen),[2]; 0.2 mg/kg DAS i.v. bolus,31 min
same,"Brain entry time, Caudate",[2]; [10],19.90 min and 19.65 min and 12.09 min and 13.12 min
same,"Brain entry time, Putamen",[2]; [10],11.47 min and 17.71 min and 12.60 min and 16.03 min
same,"Brain entry time, Mean","[2]; 0.2 mg/kg DAS, bolus administration",15 min and 15.32 ± 3.45 min and 15.32 min
same,"Brain entry time, Caudate",[2]; [11],16.07 min and 16.34 min
same,"Brain entry time, Putamen",[2]; [11],16.33 min and 18.57 min
same,"Brain entry time, Mean","[2]; 6 mg DAS, bolus + 4 step infusion",16.83 min
same,"Percent maximum displacement (= % DAT occupancy), Caudate\Putamen mean, Mean ± SD",[2]; DAS 0.1 mg/kg i.v. 3 min bolus,54% and 54.48 ± 10.04%
same,"Percent maximum displacement (= % DAT occupancy), Caudate nucleus",[2]; [12],56.1% and 49.9% and 40.8% and 53.4%
same,"Percent maximum displacement (= % DAT occupancy), Caudate\Putamen mean",[2]; [12],61.2% and 52.5% and 41.1% and 63.1%
same,"Percent maximum displacement (= % DAT occupancy), Putamen",[2]; [12],66.3% and 55.0% and 41.5% and 72.8%
same,"Percent maximum displacement (= % DAT occupancy), Caudate\Putamen mean, Mean ± SD",[2]; DAS 0.2 mg/kg i.v. 3 min bolus,68% and 68.13 ± 10.30%
same,"Percent maximum displacement (= % DAT occupancy), Caudate nucleus",[2]; [13],64.8% and 67.9% and 70.1% and 50.7%
same,"Percent maximum displacement (= % DAT occupancy), Caudate\Putamen mean",[2]; [13],76% and 72.5% and 71% and 53%
same,"Percent maximum displacement (= % DAT occupancy), Putamen",[2]; [13],87.3% and 77.1% and 72% and 55.3%
same,"Percent maximum displacement (= % DAT occupancy), Caudate nucleus",[2]; [14],83.7% and 82.0%
same,"Percent maximum displacement (= % DAT occupancy), Caudate\Putamen mean",[2]; [14],81.6% and 85.6% and 81.7%
same,"Percent maximum displacement (= % DAT occupancy), Putamen",[2]; [14],87.4% and 81.3%
same,"Percent maximum displacement (= % DAT occupancy), Caudate\putamen mean, Mean","[2]; DAS 6.0 mg, bolus plus 4-step infusion over 40 min",83.6%
same,Brain entry / DAT occupancy rate slower than MPH,"[2]; i.v. administration, DAS relative to MPH",~ 7 fold and 5-11 fold
same,DAT RO50 from this study,"[2]; rhesus monkey, plasma level",3.5 ng/mL
